# Data: paper PMC7565406, “BMS-599626, a Highly Selective Pan-HER Kinase Inhibitor, Antagonizes ABCG2-Mediated Drug Resistance” (Cancers, 2020)
# Legend:
# ABCG2 [1] = target: T1, ABCG2 (Homo sapiens, UniProt Q9UNQ0); test: vanadate-sensitive ATPase assay in ABCG2 membrane vesicles; supported by [3H]-mitoxantrone accumulation and efflux in cells; assay type: biochemical; parameters: membrane vesicles prepared from ABCG2 expressing High-five insect cells
# T1 sequence (Q9UNQ0 1-655): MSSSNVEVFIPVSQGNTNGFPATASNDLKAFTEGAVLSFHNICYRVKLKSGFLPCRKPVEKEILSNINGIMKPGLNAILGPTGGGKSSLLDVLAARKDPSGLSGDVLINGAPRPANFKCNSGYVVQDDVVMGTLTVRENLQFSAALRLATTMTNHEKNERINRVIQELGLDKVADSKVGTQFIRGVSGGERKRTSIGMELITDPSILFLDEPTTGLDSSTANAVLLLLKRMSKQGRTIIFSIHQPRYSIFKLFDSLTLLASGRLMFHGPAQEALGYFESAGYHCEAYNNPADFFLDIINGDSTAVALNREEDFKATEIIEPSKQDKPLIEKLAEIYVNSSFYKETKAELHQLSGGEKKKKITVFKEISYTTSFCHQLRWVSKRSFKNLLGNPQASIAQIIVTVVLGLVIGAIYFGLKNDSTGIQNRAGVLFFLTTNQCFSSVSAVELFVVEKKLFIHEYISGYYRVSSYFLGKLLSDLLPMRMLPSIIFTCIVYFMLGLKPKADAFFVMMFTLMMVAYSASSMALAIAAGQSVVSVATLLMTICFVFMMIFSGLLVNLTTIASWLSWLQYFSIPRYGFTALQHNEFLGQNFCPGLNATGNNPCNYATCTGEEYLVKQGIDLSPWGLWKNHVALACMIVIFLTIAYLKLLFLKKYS
# ABCG2 [2] = target: T1, ABCG2; test: radiolabelled drug efflux in ABCG2-overexpressing versus parental cells; assay type: cell-based; parameters: wild-type ABCG2 (R482) in HEK293 cells; NCI-H460/MX20 cells
smiles,measurement,setting,value
"Cc1c(NC(=O)OC[C@@H]2COCCN2)cn2ncnc(Nc3ccc4c(cnn4Cc4cccc(F)c4)c3)c12 [BMS-599626, [4-[[1-(3-fluorophenyl)methyl]-1H-indazol5-ylamino]-5-methylpyrrolo [2,1-f][1,2,4]triazin6-yl]carbamic acid, (3S)-3-morpholinylmethyl ester]",vanadate-sensitive ATPase assay in ABCG2 membrane vesicles; supported by [3H]-mi,ABCG2 [1],7.6 fold inhibition of ATPase activity at 3 µM
O=C1c2c(O)ccc(O)c2C(=O)c2c(NCCNCCO)ccc(NCCNCCO)c21 [mitoxantrone],radiolabelled drug efflux in ABCG2-overexpressing versus parental cells,ABCG2 [2],ABCG2-overexpressing cell lines showed a significantly higher efflux activity compared to parental cell lines
